Experiments:
plants comprising EE-GH7 = assay: Field tolerance of plants comprising EE-GH7 to IFT, glyphosate and combinations; assay type: in vivo, cotton (Gossypium hirsutum)
Procedure: Tolerance of plants comprising EE-GH7 to IFT, to glyphosate and to combinations thereof, was tested at different locations in the field. […] Currently available data appear to indicate a performance which is at least equal to, or better than the performance of plants comprising EE-GH7 over plants comprising the hppd and epsps chimeric genes as described in WO2013/026740.

[1] = test system: commercial cotton cultivars comprising EE-GH7; assay: Herbicide tolerance after introgression of EE-GH7 into commercial cotton cultivars; assay type: in vivo, cotton (Gossypium hirsutum); conditions: EE-GH7 introgressed by repeated back-crossing into commercial cultivars
Text: This confirms the status of event EE-GH7 as an elite event.

SMILES | Tolerance of plants comprising EE-GH7 to the herbicide (plants comprising EE-GH7; different locations, IFT alone, in particular applied before emergence) | Expression of the transgene as determined by herbicide tolerance [1] | Tolerance of plants comprising EE-GH7 to the herbicide (plants comprising EE-GH7; applied post emergence) | Glyphosate tolerance of plants comprising EE-GH7 compared with elite glyphosate tolerant event EE-GH3 (plants comprising EE-GH7; versus EE-GH3 of WO2007/017186)
CS(=O)(=O)c1cc(C(F)(F)F)ccc1C(=O)c1cnoc1C1CC1 [IFT, (5-cyclopropyl-4-isoxazolyl)[2-(methylsulfonyl)-4-(trifluoromethyl)phenyl]methanone] | good tolerance | meets commercially acceptable levels | – | –
O=C(O)CNCP(=O)(O)O [glyphosate] | – | meets commercially acceptable levels | good tolerance | equal to or better than

— patent publication US11085050B2, “Elite event EE-GH7 and methods and kits for identifying such event in biological samples” (BASF AGRICULTURAL SOLUTIONS SEED, US LLC, priority 2016, dated 2021)
